Laboratory results taken from US9133148B2, “Carbamate compounds and of making and using same” (Abide Therapeutics, Inc., priority 2012, dated 2015).

Experiments:
Assay type in all cases: biochemical
Details in all cases: mouse brain membrane proteome
[1] = biological target: FAAH (Mus musculus (Mouse), UniProt O08914); assay: In vitro competitive activity-based protein profiling (FP-Rh), mouse FAAH
Procedure: (§1) In Vitro Competitive Activity-Based Protein Profiling.
(§2) Proteomes (mouse brain membrane fraction or cell lysates) ([…], 1.0 mg/mL total protein concentration) were preincubated with varying concentrations of inhibitors at 37° C. After 30 min, FP-Rh (1.0 μL, 50 μM in DMSO) was added and the mixture was incubated for another 30 min at 37° C. Reactions were quenched with SDS loading buffer (50 μL—4×) and run on SDS-PAGE.

[2] = biological target: ABHD6 (Mus musculus (Mouse), UniProt Q8R2Y0); assay: In vitro competitive activity-based protein profiling (FP-Rh), mouse ABHD6
Procedure: as §1, §2

[3] = biological target: MAGL (Mus musculus (Mouse), UniProt O35678); assay: In vitro competitive activity-based protein profiling (FP-Rh), mouse MAGL
Procedure: as §1, §2

Chain of MAGL (O35678 whole entry): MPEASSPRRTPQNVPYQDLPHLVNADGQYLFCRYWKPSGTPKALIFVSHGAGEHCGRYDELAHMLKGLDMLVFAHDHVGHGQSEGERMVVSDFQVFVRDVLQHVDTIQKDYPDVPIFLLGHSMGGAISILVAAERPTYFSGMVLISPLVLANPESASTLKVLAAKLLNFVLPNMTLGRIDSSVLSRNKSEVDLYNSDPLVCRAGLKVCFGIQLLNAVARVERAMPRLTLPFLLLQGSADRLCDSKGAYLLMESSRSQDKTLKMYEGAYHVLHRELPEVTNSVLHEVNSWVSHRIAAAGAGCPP
Chain of FAAH (O08914 whole entry): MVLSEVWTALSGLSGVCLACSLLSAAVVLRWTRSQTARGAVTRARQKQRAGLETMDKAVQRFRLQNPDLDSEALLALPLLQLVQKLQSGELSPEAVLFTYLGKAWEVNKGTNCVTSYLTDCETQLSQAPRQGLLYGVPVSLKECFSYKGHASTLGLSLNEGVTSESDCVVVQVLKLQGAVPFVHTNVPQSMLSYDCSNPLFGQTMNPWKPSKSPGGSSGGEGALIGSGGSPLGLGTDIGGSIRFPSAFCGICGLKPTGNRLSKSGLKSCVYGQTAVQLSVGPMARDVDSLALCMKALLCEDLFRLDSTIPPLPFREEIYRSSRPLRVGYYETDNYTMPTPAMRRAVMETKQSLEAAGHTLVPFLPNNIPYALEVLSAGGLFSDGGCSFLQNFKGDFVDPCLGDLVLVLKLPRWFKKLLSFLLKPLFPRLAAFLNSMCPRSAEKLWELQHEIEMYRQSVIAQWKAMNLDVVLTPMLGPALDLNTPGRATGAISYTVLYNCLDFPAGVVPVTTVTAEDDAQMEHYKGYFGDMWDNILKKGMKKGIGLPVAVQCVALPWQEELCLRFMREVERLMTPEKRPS
Chain of ABHD6 (Q8R2Y0 whole entry): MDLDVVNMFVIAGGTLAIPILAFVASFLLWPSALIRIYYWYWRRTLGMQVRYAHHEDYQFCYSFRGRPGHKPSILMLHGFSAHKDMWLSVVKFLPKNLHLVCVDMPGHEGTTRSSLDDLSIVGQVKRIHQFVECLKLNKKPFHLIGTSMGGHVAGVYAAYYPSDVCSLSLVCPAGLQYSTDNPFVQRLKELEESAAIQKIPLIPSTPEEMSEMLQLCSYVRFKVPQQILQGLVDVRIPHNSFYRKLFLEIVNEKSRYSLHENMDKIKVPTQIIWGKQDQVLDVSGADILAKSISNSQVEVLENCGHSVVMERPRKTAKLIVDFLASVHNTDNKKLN

Compound | IC50 ([1]; competitive ABPP) [nM] | IC50 ([1]; competitive ABPP (Table 7)) [nM] | IC50 ([3]; competitive ABPP (Table 7)) [nM] | other results
O=C(Oc1ccc([N+](=O)[O-])cc1)N1CCC(C(O)(c2ccc3c(c2)OCO3)c2ccc3c(c2)OCO3)CC1 [A, 4-nitrophenyl 4-(dibenzo[d][1,3]dioxol-5-yl(hydroxy)methyl)piperidine-1-carboxylate, reference compound] | 4700 | – | – | IC50 ([2]; competitive ABPP): 100 to 1000 nM
CC(C)(C)OC(=O)N1CCN(C(=O)OC(C(F)(F)F)C(F)(F)F)CC1 [Example 3d, 1-tert-butyl 4-(1,1,1,3,3,3-hexafluoropropan-2-yl)piperazine-1,4-dicarboxylate] | > 10000 | – | – | IC50 ([2]; competitive ABPP): > 1000 nM; IC50 ([3]; competitive ABPP): > 1000 nM
CN(Cc1cccc(-c2ccncc2)c1)C(=O)OC(C(F)(F)F)C(F)(F)F [Example 3f, 1,1,1,3,3,3-hexafluoropropan-2-yl methyl(3-(pyridin-4-yl)benzyl)-carbamate] | > 10000 | – | – | IC50 ([2]; competitive ABPP): 100 to 1000 nM
O=C(O)C(OC(=O)N1CCN(C(c2ccc(Cl)cc2)c2ccc(Cl)cc2)CC1)C(F)(F)F (centres unmarked) [Example 6i, 2-((4-(bis(4-chlorophenyl)methyl)piperazine-1-carbonyl)oxy)-3,3,3-trifluoropropanoic acid] | > 10000 | – | – | IC50 ([2]; competitive ABPP): > 1000 nM; IC50 ([3]; competitive ABPP): > 1000 nM
COC(=O)C(OC(=O)N(C)CCc1ccccc1)C(F)(F)F (centres unmarked) [Example 7k, Methyl 3,3,3-trifluoro-2-((methyl(phenethyl)carbamoyl)oxy)propanoate] | > 10000 | – | – | IC50 ([2]; competitive ABPP): > 1000 nM; IC50 ([3]; competitive ABPP): > 1000 nM
O=C(OC(C(F)(F)F)C(F)(F)F)N1CCN(Cc2ccc(N3CCOCC3)cc2F)CC1 [Example 9a, 1,1,1,3,3,3-hexafluoropropan-2-yl 4-(2-fluoro-4-morpholinobenzyl)piperazine-1-carboxylate] | – | > 10000 | 100 to 1000 | IC50 ([2]; competitive ABPP (Table 7)): 100 to 1000 nM
O=C(OC(C(F)(F)F)C(F)(F)F)N1CCN(Cc2ccc(N3CCCC3)c(F)c2)CC1 [Example 9aa, 1,1,1,3,3,3-hexafluoropropan-2-yl 4-(3-fluoro-4-(pyrrolidin-1-yl)benzyl)piperazine-1-carboxylate] | – | > 10000 | 100 to 1000 | IC50 ([2]; competitive ABPP (Table 7)): 100 to 1000 nM
O=C(OC(C(F)(F)F)C(F)(F)F)N1CCN(Cc2ccc(N3CCCC3)cc2Cl)CC1 [Example 9ab, 1,1,1,3,3,3-hexafluoropropan-2-yl 4-[[2-chloro-4-(pyrrolidin-1-yl)phenyl]methyl]piperazine-1-carboxylate] | – | > 10000 | 100 to 1000 | IC50 ([2]; competitive ABPP (Table 7)): > 1000 nM
O=C(OC(C(F)(F)F)C(F)(F)F)N1CCN(Cc2cccc(Cl)c2N2CCOCC2)CC1 [Example 9ad, 1,1,1,3,3,3-hexafluoropropan-2-yl 4-[[3-chloro-2-(morpholin-4-yl)phenyl]methyl]piperazine-1-carboxylate] | – | > 10000 | – | –
O=C(OC(C(F)(F)F)C(F)(F)F)N1CCN(Cc2cc(Cl)ccc2N2CCOCC2)CC1 [Example 9ag, 1,1,1,3,3,3-hexafluoropropan-2-yl 4-[[5-chloro-2-(morpholin-4-yl)phenyl]methyl]piperazine-1-carboxylate] | – | > 10000 | – | IC50 ([2]; competitive ABPP (Table 7)): > 1000 nM
O=C(OC(C(F)(F)F)C(F)(F)F)N1CCN(Cc2cccc(N3CCOCC3)c2)CC1 [Example 9ah, 1,1,1,3,3,3-hexafluoropropan-2-yl 4-(3-morpholinobenzyl)piperazine-1-carboxylate] | – | > 10000 | < 100 | IC50 ([2]; competitive ABPP (Table 7)): < 100 nM
O=C(OC(C(F)(F)F)C(F)(F)F)N1CCN(Cc2ccc(C(F)(F)F)cc2N2CCCC2)CC1 [Example 9aq, 1,1,1,3,3,3-hexafluoropropan-2-yl 4-(2-(pyrrolidin-1-yl)-4-(trifluoromethyl)benzyl)piperazine-1-carboxylate] | – | > 10000 | – | –
O=C(OC(C(F)(F)F)C(F)(F)F)N1CCN(Cc2ccc(C(F)(F)F)cc2N2CCOCC2)CC1 [Example 9c, 1,1,1,3,3,3-hexafluoropropan-2-yl 4-[[2-(morpholin-4-yl)-4-(trifluoromethyl)phenyl]methyl]piperazine-1-carboxylate] | – | > 10000 | – | –
Cc1cc(N2CCOCC2)ccc1CN1CCN(C(=O)OC(C(F)(F)F)C(F)(F)F)CC1 [Example 9p, 1,1,1,3,3,3-hexafluoropropan-2-yl 4-(2-methyl-4-morpholinobenzyl)piperazine-1-carboxylate] | – | – | < 100 | –
O=C(OC(C(F)(F)F)C(F)(F)F)N1CCN(Cc2ccc(Br)cc2N2CCCCC2)CC1 [Example 9q, 1,1,1,3,3,3-hexafluoropropan-2-yl 4-(4-bromo-2-(piperidin-1-yl)benzyl)piperazine-1-carboxylate] | – | – | 100 to 1000 | –
O=C(OC(C(F)(F)F)C(F)(F)F)N1CCN(Cc2ccc(Br)cc2N2CCOCC2)CC1 [Example 9r, 1,1,1,3,3,3-hexafluoropropan-2-yl 4-(4-bromo-2-morpholinobenzyl)piperazine-1-carboxylate] | – | – | < 100 | –
O=C(OC(C(F)(F)F)C(F)(F)F)N1CCN(Cc2ccc(Cl)cc2N2CCOCC2)CC1 [Example 9t, 1,1,1,3,3,3-hexafluoropropan-2-yl 4-(4-chloro-2-morpholinobenzyl)piperazine-1-carboxylate] | – | > 6250 | – | –
O=C(OC(C(F)(F)F)C(F)(F)F)N1CCN(Cc2ccc(Br)cc2N2CCCC2)CC1 [Example 9x, 1,1,1,3,3,3-hexafluoropropan-2-yl 4-(4-bromo-2-(pyrrolidin-1-yl)benzyl)piperazine-1-carboxylate] | – | > 250 | – | –
O=C(OC(C(F)(F)F)C(F)(F)F)N1CCN(Cc2ccccc2N2CCOCC2)CC1 [Example 9y, 1,1,1,3,3,3-hexafluoropropan-2-yl 4-(2-morpholinobenzyl)piperazine-1-carboxylate] | – | > 250 | < 100 | –
O=C(OC(C(F)(F)F)C(F)(F)F)N1CCN(Cc2ccc(Cl)cc2N2CCCC2)CC1 [Example 9z, 1,1,1,3,3,3-hexafluoropropan-2-yl 4-(4-chloro-2-(pyrrolidin-1-yl)benzyl)piperazine-1-carboxylate] | – | > 10000 | – | –
Cn1ncc(Br)c1CN1CCN(C(=O)OC(C(F)(F)F)C(F)(F)F)CC1 [Example 10f, 1,1,1,3,3,3-hexafluoropropan-2-yl 4-((4-bromo-1-methyl-1H-pyrazol-5-yl)methyl)piperazine-1-carboxylate] | – | – | 100 to 1000 | –
O=C(OC(C(F)(F)F)C(F)(F)F)N1CCN(Cc2ccc(-c3ccccc3)cc2N2CCOCC2)CC1 [Example 11f, 1,1,1,3,3,3-hexafluoropropan-2-yl 4-((3-morpholino-[1,1′-biphenyl]-4-yl)methyl)piperazine-1-carboxylate] | – | – | > 1000 | –
Cn1cc(CN2CCN(C(=O)OC(C(F)(F)F)C(F)(F)F)CC2)c(-c2ccccc2Cl)n1 [l0g, 1,1,1,3,3,3-hexafluoropropan-2-yl 4-[[3-(2-chlorophenyl)-1-methyl-1H-pyrazol-4-yl]methyl]piperazine-1-carboxylate] | – | > 10000 | – | –

Now from value to compound, other results behind:

IC50 ([1]; competitive ABPP) [nM] | IC50 ([1]; competitive ABPP (Table 7)) [nM] | IC50 ([3]; competitive ABPP (Table 7)) [nM] | Compound | other results
> 10000 | – | – | O=C(OC(C(F)(F)F)C(F)(F)F)N1CCN(C(c2ccc(Cl)cc2)c2ccc(Cl)cc2)CC1 [Example 2b, 1,1,1,3,3,3-hexafluoropropan-2-yl 4-(bis(4-chlorophenyl)methyl)-piperazine-1-carboxylate] | –
> 10000 | – | – | O=C(OC(C(F)(F)F)C(F)(F)F)N1CCN(C(c2ccc(-c3ccccc3)cc2)c2ccc3c(c2)OCO3)CC1 (centres unmarked) [Example 2g] | IC50 ([2]; competitive ABPP): > 1000 nM; IC50 ([3]; competitive ABPP): > 1000 nM
> 6000 | – | – | O=C(OC(C(F)(F)F)C(F)(F)F)N1CCN(C(c2cocn2)c2cocn2)CC1 [Example 2i, 1,1,1,3,3,3-hexafluoropropan-2-yl 4-(bis(oxazol-4-yl)methyl)piperazine-1-carboxylate] | –
> 10000 | – | – | Cc1cc(Cl)ccc1C(c1ccc(Cl)cc1C)N1CCN(C(=O)OC(C(F)(F)F)C(F)(F)F)CC1 [Example 2j, 1,1,1,3,3,3-hexafluoropropan-2-yl 4-(bis(4-chloro-2-methylphenyl)methyl)piperazine-1-carboxylate] | IC50 ([2]; competitive ABPP): > 1000 nM
> 10000 | – | – | O=C(OC(C(F)(F)F)C(F)(F)F)N1CCN(C(c2cccnc2)c2cccnc2)CC1 [Example 2l, 1,1,1,3,3,3-hexafluoropropan-2-yl 4-(di(pyridin-3-yl)methyl)piperazine-1-carboxylate] | –
– | > 10000 | 100 to 1000 | O=C(OC(C(F)(F)F)C(F)(F)F)N1CCN(Cc2ccc(Cl)cc2-n2cccn2)CC1 [Example 9ae, 1,1,1,3,3,3-hexafluoropropan-2-yl 4-(4-chloro-2-(1H-pyrazol-1-yl)benzyl)piperazine-1-carboxylate] | IC50 ([2]; competitive ABPP (Table 7)): 100 to 1000 nM
– | – | 100 to 1000 | O=C(OC(C(F)(F)F)C(F)(F)F)N1CCN(Cc2cc(-c3ccccc3)on2)CC1 [Example 10b, 1,1,1,3,3,3-hexafluoropropan-2-yl 4-((5-phenylisoxazol-3-yl)methyl)piperazine-1-carboxylate] | –
– | > 6250 | – | Cc1nn(-c2ccccc2)cc1CN1CCN(C(=O)OC(C(F)(F)F)C(F)(F)F)CC1 [Example 10c, 1,1,1,3,3,3-hexafluoropropan-2-yl 4-((3-methyl-1-phenyl-1H-pyrazol-4-yl)methyl)piperazine-1-carboxylate] | –
– | > 10000 | – | Cn1nc(-c2ccccc2)cc1CN1CCN(C(=O)OC(C(F)(F)F)C(F)(F)F)CC1 [Example 10d, 1,1,1,3,3,3-hexafluoropropan-2-yl 4-((1-methyl-3-phenyl-1H-pyrazol-5-yl)methyl)piperazine-1-carboxylate] | –
– | > 10000 | – | Cn1cc(CN2CCN(C(=O)OC(C(F)(F)F)C(F)(F)F)CC2)c(-c2ccccc2)n1 [Example 10e, 1,1,1,3,3,3-hexafluoropropan-2-yl 4-((1-methyl-3-phenyl-1H-pyrazol-4-yl)methyl)piperazine-1-carboxylate] | –
